Consider 33 compounds from patent US10385022B2, “3-amino-pyridines as GPBAR1 agonists” (HOFFMANN-LA ROCHE INC., priority 2011, dated 2019).

As usually defined, the EC50 is the midpoint of the concentration-response curve. Read a low EC50 as a more potent agent.

Structures are written as SMILES.

Sequence of human GPBAR1 receptor (Q8TDU6 whole entry): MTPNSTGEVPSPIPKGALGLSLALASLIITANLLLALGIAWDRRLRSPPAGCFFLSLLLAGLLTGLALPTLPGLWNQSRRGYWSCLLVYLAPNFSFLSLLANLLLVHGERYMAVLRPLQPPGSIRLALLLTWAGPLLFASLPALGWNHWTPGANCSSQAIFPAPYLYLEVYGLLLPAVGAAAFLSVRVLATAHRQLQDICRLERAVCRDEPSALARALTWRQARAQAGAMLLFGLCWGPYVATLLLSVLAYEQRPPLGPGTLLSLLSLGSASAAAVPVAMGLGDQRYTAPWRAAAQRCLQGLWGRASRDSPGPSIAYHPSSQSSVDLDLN

The experiment has as its target human GPBAR1 receptor (Homo sapiens (Human), UniProt Q8TDU6). The experiment is described as follows: functional cAMP assay in CHO-dhfr(minus) cells expressing human GPBAR1 receptors. Format: cell-based. The conditions noted are these: CHO-dhfr(minus) cells expressing human GPBAR1, 30 min at 30° C. Here is the method: The final clone was verified by DNA sequence analysis. The plasmid was transfected into CHO cells deficient in dihydrofolate reductase activity (CHO-dhfr-) using Lipofectamine plus (Invitrogen). Clones were isolated in limited dilution conditions and identified by activities in the cAMP assay using lithocholic acid as agonist.
EC50 values were determined using Activity Base analysis (ID Business Solution, Limited). […] Specificity for GPBAR1 was tested in non-transfected CHO cells in the same assay as above.
(In general: cAMP levels reflect the balance of adenylyl cyclase and phosphodiesterase activity.)
In turn, `COc1cccc(F)c1-c1ccncc1N(CC(F)(F)F)C(=O)c1cc(C(F)(F)F)cc(S(C)(=O)=O)c1` [Example 223, N-[4-(2-Fluoro-6-methoxy-phenyl)-pyridin-3-yl]-3-methanesulfonyl-N-(2,2,2-trifluoro-ethyl)-5-trifluoromethyl-benzamide] displayed an EC50 of 46 nM.
The result for `CN(C(=O)c1cc(C(F)(F)F)cc(S(C)(=O)=O)c1)c1cnccc1-c1cccnc1OCC(F)(F)F` [Example 279, 3-Methanesulfonyl-N-methyl-N-[2-(2,2,2-trifluoro-ethoxy)-[3,4′]bipyridinyl-3′-yl]-5-trifluoromethyl-benzamide] reads 77 nM; that for `COc1cc(-c2ccccc2C)c(N(C)C(=O)c2cc(C(F)(F)F)cc(C(F)(F)F)c2)cn1` [Example 14, N-(6-Methoxy-4-o-tolyl-pyridin-3-yl)-N-methyl-3,5-bis-trifluoromethyl-benzamide], 395 nM.
The result for `O=C(c1cc(C(F)(F)F)nc(C(F)(F)F)c1)N(CC(F)(F)F)c1cnccc1-c1ccccc1F` [Example 151, N-[4-(2-Fluoro-phenyl)-pyridin-3-yl]-N-(2,2,2-trifluoro-ethyl)-2,6-bis-trifluoromethyl-isonicotinamide] reads 47 nM; that for `Cc1ccccc1-c1ccncc1N(C)C(=O)c1cc(C(F)(F)F)cc(S(C)(=O)=O)c1` [Example 114, 3-Methanesulfonyl-N-methyl-N-(4-o-tolyl-pyridin-3-yl)-5-trifluoromethyl-benzamide], 30 nM.
Next, `Cc1cccnc1-c1ccncc1N(C)C(=O)c1cc(C(F)(F)F)cc(C(F)(F)F)c1` [Example 57, N-Methyl-N-(3-methyl-[2,4′]bipyridinyl-3′-yl)-3,5-bis-trifluoromethyl-benzamide]: 351 nM.
In turn, `Cc1ccccc1-c1cc(C#N)ncc1N(C)C(=O)c1cc(C(F)(F)F)cc(C(F)(F)F)c1` [Example 19, N-(6-Cyano-4-o-tolyl-pyridin-3-yl)-N-methyl-3,5-bis-trifluoromethyl-benzamide] gave a 50% effective concentration (EC50) of 340 nM.
Next, `COc1cc(F)ccc1-c1ccncc1N(C)C(=O)c1cc(C(F)(F)F)cc(S(=O)(=O)CCN)c1` [Example 241, 3-(2-Amino-ethanesulfonyl)-N-[4-(4-fluoro-2-methoxy-phenyl)-pyridin-3-yl]-N-methyl-5-trifluoromethyl-benzamide]: 105 nM; `COc1cc(F)ccc1-c1ccncc1N(CC(F)F)C(=O)c1cc(C(F)(F)F)nc(C(F)(F)F)c1` [Example 153, N-(2,2-Difluoro-ethyl)-N-[4-(4-fluoro-2-methoxy-phenyl)-pyridin-3-yl]-2,6-bis-trifluoromethyl-isonicotinamide]: 19 nM.
In turn, `COc1c(-c2ccncc2N(C)C(=O)c2cc(C(F)(F)F)cc(C(F)(F)F)c2)ccc(F)c1F` [Example 60, N-[4-(3,4-Difluoro-2-methoxy-phenyl)-pyridin-3-yl]-N-methyl-3,5-bis-trifluoromethyl-benzamide] came in with an EC50 of 114 nM.
Next, `COc1cccc(-c2ccncc2N(C)C(=O)c2cc(C(F)(F)F)cc(C(F)(F)F)c2)c1F` [Example 62, N-[4-(2-Fluoro-3-methoxy-phenyl)-pyridin-3-yl]-N-methyl-3,5-bis-trifluoromethyl-benzamide]: 337 nM; `COc1cc(F)ccc1-c1ccncc1N(C)C(=O)c1cc(C(F)(F)F)cc(S(=O)(=O)C2COC2)c1` [Example 255, N-[4-(4-Fluoro-2-methoxy-phenyl)-pyridin-3-yl]-N-methyl-3-(oxetane-3-sulfonyl)-5-trifluoromethyl-benzamide]: 53 nM.
Next, `CS(=O)(=O)c1cc(C(=O)N(Cc2ncco2)c2cnccc2-c2ccccc2Cl)cc(C(F)(F)F)c1` [Example 294, N-[4-(2-Chloro-phenyl)-pyridin-3-yl]-3-methanesulfonyl-N-oxazol-2-ylmethyl-5-trifluoromethyl-benzamide]: 42 nM.
The result for `COc1cnccc1-c1ccncc1N(C)C(=O)c1cc(C(F)(F)F)cc(C(F)(F)F)c1` [Example 69, N-(3′-Methoxy-[4,4′]bipyridinyl-3-yl)-N-methyl-3,5-bis-trifluoromethyl-benzamide] reads 377 nM; that for `CN(C(=O)c1cc(C(F)(F)F)cc(S(C)(=O)=O)c1)c1cnccc1-c1cccnc1Cl` [Example 313, N-(2-Chloro-[3,4′]bipyridinyl-3′-yl)-3-methanesulfonyl-N-methyl-5-trifluoromethyl-benzamide], 1220 nM; that for `CS(=O)(=O)c1cc(C(=O)N(CCO)c2cnccc2-c2ccccc2F)cc(C(F)(F)F)c1` [Example 244, N-[4-(2-Fluoro-phenyl)-pyridin-3-yl]-N-(2-hydroxy-ethyl)-3-methanesulfonyl-5-trifluoromethyl-benzamide], 1150 nM.
As to `COc1cc(F)ccc1-c1cc(C)ncc1N(C)C(=O)c1cc(Cl)cc(S(C)(=O)=O)c1` [Example 301, 3-Chloro-N-[4-(4-fluoro-2-methoxy-phenyl)-6-methyl-pyridin-3-yl]-5-methanesulfonyl-N-methyl-benzamide], it took 219 nM to reach a half-maximal effect (EC50).
The result for `COc1cc(F)ccc1-c1cc(C)ncc1N(C)C(=O)c1cc(Br)cc(C(F)(F)F)c1` [Example 303, 3-Bromo-N-[4-(4-fluoro-2-methoxy-phenyl)-6-methyl-pyridin-3-yl]-N-methyl-5-trifluoromethyl-benzamide] reads 18 nM; that for `COc1cc(F)ccc1-c1ccncc1N(C)C(=O)c1cc(C(F)(F)F)cc(S(=O)(=O)CCCCC(=O)O)c1` [Example 248, 5-(3-{[4-(4-Fluoro-2-methoxy-phenyl)-pyridin-3-yl]-methyl-carbamoyl}-5-trifluoromethyl-benzenesulfonyl)-pentanoic acid], 323 nM; that for `CNC(=O)CN(C(=O)c1cc(C(F)(F)F)cc(C(F)(F)F)c1)c1cnccc1-c1ccccc1Cl` [Example 102, N-[4-(2-Chloro-phenyl)-pyridin-3-yl]-N-methylcarbamoylmethyl-3,5-bis-trifluoromethyl-benzamide], 144 nM.
The result for `COc1cc(F)ccc1-c1ccncc1N(C)C(=O)c1cc(C(F)(F)F)cc(S(=O)(=O)N2CC3(COC3)C2)c1` [Example 305, N-[4-(4-Fluoro-2-methoxy-phenyl)-pyridin-3-yl]-N-methyl-3-(2-oxa-6-aza-spiro[3.3]heptane-6-sulfonyl)-5-trifluoromethyl-benzamide] reads 5 nM.
`O=C(c1cc(C(F)(F)F)cc(C(F)(F)F)c1)N(CC1CC1)c1cnccc1-c1ccccc1Cl` [Example 86, N-[4-(2-Chloro-phenyl)-pyridin-3-yl]-N-cyclopropylmethyl-3,5-bis-trifluoromethyl-benzamide] displayed a concentration for a half-maximal effect (EC50) of 267 nM.
Next, `COCCN(C)c1cc(-c2ccccc2C)c(N(C)C(=O)c2cc(C(F)(F)F)cc(C(F)(F)F)c2)cn1` [Example 18, N-{6-[(2-Methoxy-ethyl)-methyl-amino]-4-o-tolyl-pyridin-3-yl}-N-methyl-3,5-bis-trifluoro methyl-benzamide]: 850 nM; `COc1cc(F)ccc1-c1ccncc1N(CC(F)(F)F)C(=O)c1cc(C(F)(F)F)nc(C(F)(F)F)c1` [Example 147, N-[4-(4-Fluoro-2-methoxy-phenyl)-pyridin-3-yl]-N-(2,2,2-trifluoro-ethyl)-2,6-bis-trifluoromethyl-isonicotinamide]: 18 nM; `CN(C(=O)c1cc(C(F)(F)F)cc(C(F)(F)F)c1)c1cnc(Cl)cc1-c1ncccc1Cl` [Example 73, N-(3,6′-Dichloro-[2,4′]bipyridinyl-3′-yl)-N-methyl-3,5-bis-trifluoromethyl-benzamide]: 1830 nM.
As for `Cc1ccccc1-c1ccncc1N(C)C(=O)c1ccc(C(F)(F)F)c(C(F)(F)F)c1` [Example 101, N-Methyl-N-(4-o-tolyl-pyridin-3-yl)-3,4-bis-trifluoromethyl-benzamide], the EC50 is 298 nM.
Next, `COc1ncccc1-c1ccncc1N(CC(N)=O)C(=O)c1cc(C(F)(F)F)nc(C(F)(F)F)c1` [Example 183, N-(2-Amino-2-oxoethyl)-N-(2-methoxy-3,4′-bipyridin-3′-yl)-2,6-bis(trifluoromethyl)-isonicotinamide]: 206 nM.
For the compound `Cc1ccc(-c2ccncc2N(C)C(=O)c2cc(C(F)(F)F)cc(C(F)(F)F)c2)c(C)c1` [Example 26, N-[4-(2,4-Dimethyl-phenyl)-pyridin-3-yl]-N-methyl-3,5-bis-trifluoromethyl-benzamide], the EC50 is 686 nM.
For the compound `CN(C(=O)c1cc(C(F)(F)F)cc(C(F)(F)F)c1)c1cnccc1-c1ccccc1OC(F)(F)F` [Example 31, N-Methyl-N-[4-(2-trifluoromethoxy-phenyl)-pyridin-3-yl]-3,5-bis-trifluoromethyl-benzamide], the 50% effective concentration (EC50) was 29 nM.
The result for `Cc1ccc(Cl)cc1-c1ccncc1N(C)C(=O)c1cc(C(F)(F)F)cc(C(F)(F)F)c1` [Example 82, N-[4-(5-Chloro-2-methyl-phenyl)-pyridin-3-yl]-N-methyl-3,5-bis-trifluoromethyl-benzamide] reads 234 nM; that for `Cc1cc(-c2ccccc2Cl)c(N(CC(F)(F)F)C(=O)c2cc(C(F)(F)F)cc(S(C)(=O)=O)c2)cn1` [Example 300, N-[4-(2-Chloro-phenyl)-6-methyl-pyridin-3-yl]-3-methanesulfonyl-N-(2,2,2-trifluoro-ethyl)-5-trifluoromethyl-benzamide], 831 nM; that for `Cc1ccccc1-c1ccncc1N(C)C(=O)c1cc(N2CCCC2=O)cc(C(F)(F)F)c1` [Example 185, N-Methyl-3-(2-oxo-pyrrolidin-1-yl)-N-(4-o-tolyl-pyridin-3-yl)-5-trifluoromethyl-benzamide], 2400 nM.
Next, `Cc1ccccc1-c1cc(Cl)ncc1N(C)C(=O)c1cc(C(F)(F)F)cc(C(F)(F)F)c1` [Example 12, N-(6-Chloro-4-o-tolyl-pyridin-3-yl)-N-methyl-3,5-bis-trifluoromethyl-benzamide]: 349 nM.
